From PMC2676897 (Bioorganic & medicinal chemistry letters, 2009) come the findings set out here.

The test system of series [1] is ATCC MCF7 cells (ERα expressing). The experiment in a line: Inhibition of E2-induced proliferation, MTS assay, ATCC MCF7 expressing only ERα. It counts as cell-based, human. As to conditions: 1 nM E2, 6 days.
In series [2] the test system is MDA-MB231 cells. The experiment in a line: Growth inhibition of ER-negative MDA-MB231 cells, MTS assay. The settings on record: for growth inhibitory activity: ER-negative MDA-MB231 cells, 72 h, MTS; for toxicity to cells: MDA-MB231 cells, 25 μM. (Formazan colour is commonly taken as a measure of viable cells.)

`CCCC[C@@H]1C[C@H]1[C@@H](NC(=O)c1ccccc1)c1ccc(-c2ccc(O)cc2)cc1F` [Compound 11b]: the “GI50, inhibition of E2-induced proliferation” value in series [1] is “did not demonstrate inhibition”. In series [2], the growth inhibitory activity entry is “did not demonstrate significant growth inhibitory activity” and the toxicity to cells result is on record as “toxicity”.

Take `CCCC[C@@H]1C[C@H]1[C@@H](N)c1ccc(-c2ccc(O)cc2)cc1F.Cl` [Compound 13]: in series [2], the growth inhibitory activity result is on record as “did not demonstrate significant growth inhibitory activity” and the toxicity to cells entry was “toxicity”.

For `O=C(c1ccc(OCCN2CCCCC2)cc1)c1c(-c2ccc(O)cc2)sc2cc(O)ccc12` [RAL, Raloxifene, reference compound], in series [2], the growth inhibitory activity result is “did not demonstrate significant growth inhibitory activity” and the toxicity to cells entry is “toxicity”.
